{"source": "patent US20140045807A2", "about": "“THE USE OF 3-METHOXY-PREGNENOLONE FOR THE PREPARATION OF A DRUG FOR TREATING A TRAUMATIC BRAIN INJURY” (priority 2004, published 2014)", "key": {"spinophilin": {"tested_on": "spinophilin", "assay": "Western blot of spinophilin in cortex and hippocampus after CCI", "assay_type": "in vivo, rat", "settings": "10 mg/kg or 20 mg/kg, first injection 2 h post-trauma, day 35, injured cortex and hippocampus and contralaterally", "method": "FIG. 21: Spinophilin expression, 35 days after TBI, in the left-uninjured and right-injured hemispheres (A: cortex and B: hippocampus) of CCI-injured animals, receiving either vehicle (D0) or MAP4343 (D1: 10 mg/kg and D2: 20 mg/kg), 2 h after injury.\nSamples were analyzed by Western-blot at day 35 post-trauma (D35) to evaluate the effects of MAP4343 on: MAP2 (the target of MAP4343 and a modulator of microtubule function), the post-synaptic markers PSD95 and spinophilin, the pre-synaptic marker synaptophysin, and the axonal growth/integrity marker GAP43.\nWestern blot was performed on cortex and hippocampus of TBI-injured animals receiving the first injection of MAP4343 (at 10 mg/kg or 20 mg/kg) or vehicle (sesame oil) 2 h after injury.\nThe expression level of various neuronal brain markers of plasticity was measured at day 35 post-trauma by western-blots in the cortex and hippocampus of left uninjured and right injured cerebral hemispheres of CCI traumatized animals receiving either vehicle (sesame oil, CCI-D0) or 3-methoxy-PREG (MAP4343) at 10 mg/kg (CCI-D1) or 20 mg/kg (CCI-D2), with first MAP4343 injection 2 h post-trauma."}, "[1]": {"tested_on": "α-tubulin forms (Tyr/Glu-Tub, Acet-Tub) in rat hippocampus", "assay": "Microtubule dynamics in rat hippocampus after single administration", "assay_type": "in vivo", "settings": "10 mg/kg subcutaneously, 3 h following injection", "excerpt": "Mean±SEM, n=6 per group. **p<0.01, *[…] vs sesame oil.\nThe effects produced by neurosteroids were compared with those produced by acute administration of the antidepressant drug fluoxetine (selective serotonin reuptake inhibitor; SSRI)."}, "[2]": {"biological_target": "T1, human progesterone receptor(PR) (Homo sapiens, UniProt P06401)", "T1 construct": "expressed in transfected cells; host or cells: HEK293T", "T1 sequence (P06401 1-933)": "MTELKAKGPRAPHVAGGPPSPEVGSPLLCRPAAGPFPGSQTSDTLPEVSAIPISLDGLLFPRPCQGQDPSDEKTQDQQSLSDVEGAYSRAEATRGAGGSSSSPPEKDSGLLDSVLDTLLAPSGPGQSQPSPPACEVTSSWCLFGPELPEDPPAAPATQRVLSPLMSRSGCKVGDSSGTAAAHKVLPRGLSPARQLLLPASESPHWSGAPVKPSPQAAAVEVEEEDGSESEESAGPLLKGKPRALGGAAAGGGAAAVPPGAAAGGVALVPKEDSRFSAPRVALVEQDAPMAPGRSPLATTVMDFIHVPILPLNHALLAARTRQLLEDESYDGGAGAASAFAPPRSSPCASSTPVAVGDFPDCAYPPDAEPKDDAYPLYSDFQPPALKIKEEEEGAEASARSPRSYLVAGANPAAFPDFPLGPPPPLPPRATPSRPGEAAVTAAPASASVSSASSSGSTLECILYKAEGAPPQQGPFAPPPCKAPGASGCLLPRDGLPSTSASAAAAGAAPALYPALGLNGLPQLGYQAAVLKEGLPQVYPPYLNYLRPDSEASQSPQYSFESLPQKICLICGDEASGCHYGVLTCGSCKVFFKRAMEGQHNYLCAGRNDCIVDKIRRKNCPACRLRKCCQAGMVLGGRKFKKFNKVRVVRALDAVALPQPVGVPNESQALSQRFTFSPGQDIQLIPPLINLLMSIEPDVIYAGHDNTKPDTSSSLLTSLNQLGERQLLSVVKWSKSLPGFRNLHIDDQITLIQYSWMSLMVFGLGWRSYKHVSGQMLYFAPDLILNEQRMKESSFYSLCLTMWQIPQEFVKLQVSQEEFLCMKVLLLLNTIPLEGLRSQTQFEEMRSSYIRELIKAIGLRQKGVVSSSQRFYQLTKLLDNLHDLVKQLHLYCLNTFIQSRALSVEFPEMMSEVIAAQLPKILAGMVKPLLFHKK", "assay": "Test of progesterone receptor agonist activity (luciferase transactivation, HEK293T)", "assay_type": "cell-based", "settings": "increasing amounts, 24 hours", "method": "The main experimental setting used is the following: HEK293T cells were transiently transfected, using calcium phosphate precipitation technology, with expression vectors pSG5hPR (which permits expression of human progesterone receptor(PR)), pFC31-luc (contains the luciferase gene under the control of the MMTV promoter, which is in turn activated by binding of a progestin to progesterone receptor) and pcbetagal (which permits expression of betagalactosidase), and cultured during 24 hours with increasing amounts of various compositions: • 1. […] Test of progesterone receptor […] activity: transfected cells were cultured with progesterone (1 nM) and increasing amounts of RU486 (a well-known progesterone receptor antagonist) or 3-methoxy-pregnenolone. • With this setting, a compound with progesterone receptor antagonist activity competes with progesterone for the occupation of progesterone receptor and results in a progressive loss of transactivation activity when the amount of this compound is increased compared to progesterone."}, "[3]": {"assay": "Pharmacokinetics, GC/MS assay in brain and spinal cord", "assay_type": "in vivo, rat", "settings": "rats, 12 mg/kg subcutaneous in sesame oil; 1, 4, 8, 24 hours", "method": "FIG. 9: Kinetics of the appearance of 3-methoxy-PREG (43B) in rat brain and spinal cord following subcutaneous injection of 43B (12 mg/kg) in a sesame oil solution.\nThe pharmacokinetics of the molecules tested in vivo are evaluated using gas chromatography/mass spectrometry (GC/MS) assays."}, "[4]": {"tested_on": "spinal cord compression in rats", "assay": "Spinal cord compression model, locomotor recovery (BBB score)", "assay_type": "in vivo, rat", "settings": "12 mg/kg/day subcutaneous for 2 weeks; as of post-operation day 7", "method": "FIG. 7: Effect of molecule 43B on locomotor recovery following spinal cord compression in rats. Animal locomotion was evaluated in a blind format during the 1-28 day post-operative period using the BBB score which evaluates the degree of paralysis (higher values correspond to better recovery). Statistical significance: * indicates p<0.001; ** indicates p<0.0001.\nTo determine the neuroprotective effects of the molecules tested, a spinal cord compression model is used. This model involves the total paralysis of the animals in the first few days following the operation. This period of paralysis is followed of a phase of approximately three weeks during which the animals partially recover their motor function. The study of this recovery using a simple and precise functional test based on observation of the animals (the BBB score) makes it possible to study the speed and the degree of recovery of the animals, with and without treatment.\nTwo groups of rats were subjected to spinal cord compression. Then, daily for 2 weeks, the animals received a subcutaneous injection containing either sesame oil alone (control group, n=20), or sesame oil containing molecule 43B (43B group, n=20; 12 mg/kg/day). The first injection was given minutes after spinal cord compression. Locomotion of the animals, using BBB scores, was evaluated in a blind format on post-operation days 1, 4, 7, 14, 21, and 28. […]"}}, "data": [{"smiles": "CO[C@H]1CC[C@@]2(C)C(=CC[C@H]3[C@@H]4CC[C@H](C(C)=O)[C@@]4(C)CC[C@@H]32)C1", "note": "[3-methoxy-PREG, 3β-methoxy-pregna-5-ene-20-one]", "values": [{"measurement": "spinophilin expression", "setting": "spinophilin", "value": "increase in spinophilin expression"}, {"measurement": "Acet-Tub (marker of stable microtubules)", "setting": "[1]", "value": "significantly decreased"}, {"measurement": "Tyr/Glu-Tub ratio (index of microtubule dynamics)", "setting": "[1]", "value": "significantly increased"}, {"measurement": "progesterone receptor agonist (transactivation) activity", "setting": "[2]", "value": "does not have progesterone receptor agonist activity"}, {"measurement": "penetration into spinal cord and brain", "setting": "[3]", "value": "penetrates rapidly into the spinal cord and the brain"}, {"measurement": "BBB score (locomotion)", "setting": "[4]", "value": "quite significantly higher than the control animals"}]}]}
